Results reported in patent US20030194409A1, “Conjugate heat shock protein-binding peptides” (priority 2002, published 2003).

Biological target: T1, gp96 in the presence of herbimycin A (Mus musculus, UniProt P08113)
T1 construct: The mouse cDNA encoding mature gp96 (i.e., wherein the endoplasmic reticulum signal peptide has been removed) was incorporated into the pET 11 a expression vector; made in house; host or cells: Escherichia coli BL21 (pET11gp96)
Test: Affinity panning of phage display heptapeptide library on gp96 in the presence of herbimycin A
Format: binding
Conditions: 20 mM HEPES pH 7.5, 100 mM KCl, 25 mM CaCl2, 5 mM MgAcetate, TWEEN-20; herbimycin A present
Protocol: Preparation of a gp96 expression vector. The mouse cDNA encoding mature gp96 (i.e., wherein the endoplasmic reticulum signal peptide has been removed) was incorporated into the pET 11 a expression vector (Novagen) as follows. Gp96 cDNA insert was prepared by polymerase chain reaction (PCR) of a pRc/CMV clone containing the cDNA using the following oligonucleotide primers: […]
Expression of gp96. pET11gp96 was transformed into BL21 Escherichia coli cells, and plated on LB plates containing ampicillin (50 μg/ml). One of the resulting colonies was used to inoculate a 20 ml overnight culture of 2×TY medium containing ampicillin (150 μg/ml). The following day, the resulting culture was spun down and the harvested bacteria were resuspended in 1 ml of fresh medium. Two one liter cultures were then each inoculated with 0.5 ml of the harvested cells and allowed to grow at 37° C. until the optical density, measured at 600 nm, was 0.5. Then, IPTG was added to a concentration of 1 mM and the cells were cultured for another 3 hours before being harvested by centrifugation. The resulting cell pellet was resuspended in 20 ml of 50 mM HEPES pH 7.5, 50 mM KCl, 5 mM MgAcetate, 20% sucrose and 1 mM PMSF. Cell extracts were prepared by pressure shearing in a French Press. The lysates were then spun at 100,000×g for 1.5 hours and the supernatant, which constituted crude gp96 extract, was collected.
Purification of gp96. The following steps were all performed at 4° C. A 12.5 cm×3.2 cm column of DE52 resin (Whatman) was equilibrated in a solution of 50 mM MOPS pH 7.4, 10 mM NaCl, 5 mM MgAcetate (hereafter, “Buffer A”). The crude gp96 extract was diluted 2-fold and immediately loaded onto the column at a flow rate of 2 ml/min. Elution from the column was achieved using a gradient of a solution of 50 mM MOPS pH 7.4, 1M NaCl, 5 mM MgAcetate (hereafter, “Buffer B”) from 0% to 100% Buffer B over 1000 ml. The elution profile was examined by subjecting fractions collected from the column to SDS-PAGE analysis. Fractions containing gp96 were pooled and diluted 2-fold with cold water, and were immediately run onto the next column (see below).
A 10 cm×1 cm column of hydroxyapatite (BioRad) was washed with 100 ml 0.5 M K2HPO4, 50 mM KCl pH 7.4 and then equilibrated with 10 mM K2HPO4, 50 mM KCl pH 7.4. The pooled diluted fractions from the DE52 column were loaded onto this column at a flow rate of 1 ml/min. The gp96 protein was eluted in a gradient of 10-500 mM K2HPO4 over 800 ml. Fractions containing gp96 were pooled and loaded onto the phenylsepharose column described below.
A 9 cm×3 cm column of phenylsepharose (Pharmacia) was equilibrated with 500 mM NaCl, 50 mM MOPS pH 7.4. The pooled fractions containing gp96 from the hydroxyapatite were loaded onto this column at 1 ml/min and the gp96 was eluted in a gradient of 500-0 mM NaCl over 800 ml. The gp96 containing fractions collected from the column were identified by SDS-PAGE, pooled, and concentrated.
The gp96 was then loaded onto a Hi Load 26/60 Superdex-200 column (Pharmacia) equilibrated with 100 mM NaCl, 5 mM MgAcetate, 50 mM MOPS pH 7.5, 3 ml fractions were collected, and the fractions containing the most pure gp96 (as identified by SDS PAGE using a 12 percent reducing gel) and pooled. To the pooled fractions, glycerol was added to 10% (v/v), and then the fractions were concentrated to 21 mg/ml on a Centricon-50 concentrator (Amicon), frozen using liquid nitrogen, and stored at −80° C.
Affinity panning. The Ph.D. Phage Display Library Kit (New England BioLabs, Beverly, Mass.), was used for affinity panning. For each panning experiment, a well of a 96-well polystyrene microtiter plate (each well having a 6 mm diameter) was filled with 150 μl of a solution of 200 μg/ml of gp96 in 0.1 M NaHCO3 pH 8.3. If herbimycin A was to be included in the experiment, 1 μl of 10 mg/ml herbimycin A (GIBCO) in DMSO was added to each well, corresponding to a 50-fold molar excess relative to gp96. […]

T1 sequence (P08113 22-802): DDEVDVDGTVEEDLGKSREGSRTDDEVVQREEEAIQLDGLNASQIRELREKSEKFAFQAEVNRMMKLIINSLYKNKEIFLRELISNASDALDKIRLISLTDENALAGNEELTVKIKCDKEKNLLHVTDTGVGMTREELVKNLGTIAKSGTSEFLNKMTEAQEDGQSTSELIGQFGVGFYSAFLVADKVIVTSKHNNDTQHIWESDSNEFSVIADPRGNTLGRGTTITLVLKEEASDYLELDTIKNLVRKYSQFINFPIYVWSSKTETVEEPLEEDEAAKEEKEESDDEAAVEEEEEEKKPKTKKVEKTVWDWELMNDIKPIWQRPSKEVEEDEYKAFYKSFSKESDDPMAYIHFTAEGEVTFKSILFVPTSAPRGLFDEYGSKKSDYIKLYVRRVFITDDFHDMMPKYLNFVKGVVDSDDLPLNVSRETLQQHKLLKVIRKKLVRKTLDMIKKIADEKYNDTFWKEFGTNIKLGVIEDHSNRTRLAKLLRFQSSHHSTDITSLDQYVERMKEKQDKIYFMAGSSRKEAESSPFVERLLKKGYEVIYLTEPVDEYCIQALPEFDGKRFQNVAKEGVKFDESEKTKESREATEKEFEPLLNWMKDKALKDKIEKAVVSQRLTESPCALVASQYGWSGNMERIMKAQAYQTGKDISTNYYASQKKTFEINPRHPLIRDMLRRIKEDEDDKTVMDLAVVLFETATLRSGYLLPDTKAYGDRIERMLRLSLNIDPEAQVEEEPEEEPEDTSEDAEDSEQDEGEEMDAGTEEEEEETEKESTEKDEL

Molecule | binding of phage-expressed peptides to gp96
Phe-His-Trp-Trp-Trp (FHWWW; printed: Phe-His-Trp-Trp-Trp) | appeared to be favored

Same assay, conditions: Table XII; gp96 and herbimycin A; binding buffer without calcium: 20 mM HEPES pH 7.5, 100 mM KCl, 1 mM DTT, 1 mM MgAcetate, TWEEN 20; 42 phage-expressed peptides sequenced

Molecule | % actual (amino acid frequency in sequenced gp96-binding phage-expressed heptapeptides) [%]
C[C@H](N)C(=O)O [Ala] | 10.2
N=C(N)NCCC[C@H](N)C(=O)O [Arg] | 2.72
NC(=O)C[C@H](N)C(=O)O [Asn] | 3.06
N[C@@H](CC(=O)O)C(=O)O [Asp] | 2.04
N[C@@H](CS)C(=O)O [Cys] | 0
NC(=O)CC[C@H](N)C(=O)O [Gln] | 2.0
N[C@@H](CCC(=O)O)C(=O)O [Glu] | 2.0

The next lines start with the values.

% actual (amino acid frequency in sequenced gp96-binding phage-expressed heptapeptides) [%] | Molecule
3.74 | NCC(=O)O [Gly]
5.44 | N[C@@H](Cc1c[nH]cn1)C(=O)O [His]
12.92 | CC(C)C[C@H](N)C(=O)O [Leu]
3.74 | NCCCC[C@H](N)C(=O)O [Lys]
2.0 | CSCC[C@H](N)C(=O)O [Met]
2.38 | N[C@@H](Cc1ccccc1)C(=O)O [Phe]
10.88 | O=C(O)[C@@H]1CCCN1 [Pro]

Same assay, conditions: Table XIV; gp96 in the presence of herbimycin A; binding buffer with ATP: 20 mM HEPES pH 7.5, 100 mM KCl, 1 mM CaCl2, 1 mM MgAcetate, 1 mM ATP, TWEEN 20

Molecule | % actual (amino acid frequency in sequenced gp96-binding phage-expressed heptapeptides) [%]
C[C@H](N)C(=O)O [Ala] | 3.57
N=C(N)NCCC[C@H](N)C(=O)O [Arg] | 5.35
NC(=O)C[C@H](N)C(=O)O [Asn] | 5.3
N[C@@H](CC(=O)O)C(=O)O [Asp] | 0
N[C@@H](CS)C(=O)O [Cys] | 0
NC(=O)CC[C@H](N)C(=O)O [Gln] | 1.78
N[C@@H](CCC(=O)O)C(=O)O [Glu] | 0

Next, values leading:

% actual (amino acid frequency in sequenced gp96-binding phage-expressed heptapeptides) [%] | Molecule
1.78 | NCC(=O)O [Gly]
10.7 | N[C@@H](Cc1c[nH]cn1)C(=O)O [His]
10.7 | CC(C)C[C@H](N)C(=O)O [Leu]
0 | NCCCC[C@H](N)C(=O)O [Lys]
0 | CSCC[C@H](N)C(=O)O [Met]
0 | N[C@@H](Cc1ccccc1)C(=O)O [Phe]
14.2 | O=C(O)[C@@H]1CCCN1 [Pro]

Same assay, conditions: Table XVI; binding buffer with AMP-PNP instead of ATP: 20 mM HEPES pH 7.5, 100 mM KCl, 1 mM CaCl2, 1 mM MgAcetate, 1 mM AMP-PNP, TWEEN 20

Molecule | % actual (amino acid frequency in sequenced gp96-binding phage-expressed heptapeptides) [%]
C[C@H](N)C(=O)O [Ala] | 8.5
N=C(N)NCCC[C@H](N)C(=O)O [Arg] | 5.7
NC(=O)C[C@H](N)C(=O)O [Asn] | 5.7
N[C@@H](CC(=O)O)C(=O)O [Asp] | 1.4
N[C@@H](CS)C(=O)O [Cys] | 0
NC(=O)CC[C@H](N)C(=O)O [Gln] | 5.7
N[C@@H](CCC(=O)O)C(=O)O [Glu] | 0

Continued, values first:

% actual (amino acid frequency in sequenced gp96-binding phage-expressed heptapeptides) [%] | Molecule
1.4 | NCC(=O)O [Gly]
12.8 | N[C@@H](Cc1c[nH]cn1)C(=O)O [His]
5.7 | CC(C)C[C@H](N)C(=O)O [Leu]
2.85 | NCCCC[C@H](N)C(=O)O [Lys]
2.85 | CSCC[C@H](N)C(=O)O [Met]
2.85 | N[C@@H](Cc1ccccc1)C(=O)O [Phe]
12.8 | O=C(O)[C@@H]1CCCN1 [Pro]

Biological target: T1, gp96 in the presence of herbimycin A
Test: not given
Conditions: Table XII; expected frequency for comparison with % actual; cited from earlier work

Molecule | % expected (amino acid frequency) [%]
C[C@H](N)C(=O)O [Ala] | 7.2
N=C(N)NCCC[C@H](N)C(=O)O [Arg] | 3.9
NC(=O)C[C@H](N)C(=O)O [Asn] | 4.1
N[C@@H](CC(=O)O)C(=O)O [Asp] | 2.1
N[C@@H](CS)C(=O)O [Cys] | 0.8
NC(=O)CC[C@H](N)C(=O)O [Gln] | 6.4
N[C@@H](CCC(=O)O)C(=O)O [Glu] | 1.2
NCC(=O)O [Gly] | 3.7
N[C@@H](Cc1c[nH]cn1)C(=O)O [His] | 4.3
CC(C)C[C@H](N)C(=O)O [Leu] | 11.8
NCCCC[C@H](N)C(=O)O [Lys] | 1.7
CSCC[C@H](N)C(=O)O [Met] | 3.3
N[C@@H](Cc1ccccc1)C(=O)O [Phe] | 2.9
O=C(O)[C@@H]1CCCN1 [Pro] | 12

Same assay, conditions: Table XIV; expected frequency for comparison with % actual; cited from earlier work

Molecule | % expected (amino acid frequency) [%]
C[C@H](N)C(=O)O [Ala] | 7.2
N=C(N)NCCC[C@H](N)C(=O)O [Arg] | 3.9
NC(=O)C[C@H](N)C(=O)O [Asn] | 4.1
N[C@@H](CC(=O)O)C(=O)O [Asp] | 2.1
N[C@@H](CS)C(=O)O [Cys] | 0.8
NC(=O)CC[C@H](N)C(=O)O [Gln] | 6.4
N[C@@H](CCC(=O)O)C(=O)O [Glu] | 1.2
NCC(=O)O [Gly] | 3.7
N[C@@H](Cc1c[nH]cn1)C(=O)O [His] | 4.3
CC(C)C[C@H](N)C(=O)O [Leu] | 11.8
NCCCC[C@H](N)C(=O)O [Lys] | 1.7
CSCC[C@H](N)C(=O)O [Met] | 3.3
N[C@@H](Cc1ccccc1)C(=O)O [Phe] | 2.9
O=C(O)[C@@H]1CCCN1 [Pro] | 12

Same assay, conditions: Table XVI; expected frequency for comparison with % actual; cited from earlier work

Molecule | % expected (amino acid frequency) [%]
C[C@H](N)C(=O)O [Ala] | 7.2
N=C(N)NCCC[C@H](N)C(=O)O [Arg] | 3.9
NC(=O)C[C@H](N)C(=O)O [Asn] | 4.1
N[C@@H](CC(=O)O)C(=O)O [Asp] | 2.1
N[C@@H](CS)C(=O)O [Cys] | 0.8
NC(=O)CC[C@H](N)C(=O)O [Gln] | 6.4
N[C@@H](CCC(=O)O)C(=O)O [Glu] | 1.2
NCC(=O)O [Gly] | 3.7
N[C@@H](Cc1c[nH]cn1)C(=O)O [His] | 4.3
CC(C)C[C@H](N)C(=O)O [Leu] | 11.8
NCCCC[C@H](N)C(=O)O [Lys] | 1.7
CSCC[C@H](N)C(=O)O [Met] | 3.3
N[C@@H](Cc1ccccc1)C(=O)O [Phe] | 2.9
O=C(O)[C@@H]1CCCN1 [Pro] | 12
